Source: patent publication US12403106B2, “Prophylactic skin treatment for radiation therapy” (THE BOARD OF TRUSTEES OF THE LELAND STANFORD JUNIOR …, priority 2019, dated 2025)

What was measured:
fat grafts = assay: Fat graft volume retention by micro-CT in DFO preconditioned irradiated scalp (Example 1); assay type: in vivo; conditions: DFO preconditioned irradiated mice, mean±SE
Description: (§1) Adult 60-day-old male Cr1:NU-Fox1NU immunocompromised mice were used for experiments in this study. Twelve mice were treated with a total of 30 Gy external beam radiation, delivered as six fractionated doses of 5 Gy each over 12 days, followed by 5 weeks of recovery. An additional six non-irradiated mice were used as healthy controls for laser Doppler analysis (LDA) and skin analysis. Irradiated mice were divided into two treatment groups: a DFO experimental group and saline control group. Following recovery, mice underwent injection of either DFO (1 mg in 100 μl saline) or 100 μl of saline alone beneath the dermis every other day for a total of seven treatments.
After irradiation, fat grafting was performed on the irradiated mice. After informed consent was obtained, lipoaspirate was obtained from three healthy donors, with no other medical co-morbidities under an approved IRB protocol #2188.
Lipoaspirate was allowed to settle for 15 minutes for layers to separate by gravity sedimentation, and then oil and blood layers were removed by vacuum aspiration. The remaining fat layer was centrifuged at 1300 ref for 3 minutes at 4° C. Any remaining oil and blood was again removed and the remaining fat was transferred into lee syringes for injection through a 14-gauge needle. Fat grafting was performed beneath the scalp by creating a subcutaneous tunnel with the needle and then injecting […] of lipoaspirate in retrograde fashion while pulling the needle out.
Mice were also imaged using a MicroCAT-11 in vivo X-Ray micro-CT scanner (Imtek, Inc.; Knoxville, Tenn.) two days after fat graft injection for baseline volume measurements. Fat graft volume retention was then analyzed every two weeks over a total of 8 weeks using microcomputed tomography, and images were reconstructed as three-dimensional surfaces through cubic-spline interpolation. All reconstructions were performed by a single investigator to avoid inter-observer variability.

irradiated scalp = assay: Laser Doppler analysis of perfusion of irradiated scalp, DFO injection (Example 1); assay type: in vivo, mice; conditions: mean±SE
Description: as §1
Laser Doppler Analysis (“LDA”) was performed to measure perfusion at the irradiated site using a Perimed PIM 3 laser Doppler perfusion imager (Datavagen, Sweden). The signal generated by the LDA, laser Doppler perfusion index (LDPI), was used for comparative purposes. LDPI is a product of the blood cell velocity and concentration and is represented by a color spectrum, with black/dark blue representing low perfusion and red representing high perfusion. LDA was performed prior to irradiation, following completion of irradiation and recovery, and then twenty-four hours following each treatment with DFO or saline. […]
Five images were taken of each mouse, and the average LDPI of the five images was recorded. […]

SMILES: CC(=O)N(O)CCCCCNC(=O)CCC(=O)N(O)CCCCCNC(=O)CCC(=O)N(O)CCCCCN [DFO, deferoxamine]
- fat graft volume retention (fat grafts; two weeks after fat grafting): 89.24%
- fat graft volume retention (fat grafts; week 6 after fat grafting): 73.17%
- fat graft volume retention (fat grafts; week 8 after fat grafting): 71.75%
- laser Doppler perfusion index at the scalp (irradiated scalp; 30 Gy irradiated scalp, 1 mg DFO injected beneath the dermis every other day, after four treatments): 205.08±2.30 LDPI
- laser Doppler perfusion index following fat grafting (irradiated scalp; two weeks following injection of fat grafts, DFO preconditioned mice): 86.33±2.00 LDPI
